We go through 3 compounds from PMC6973020, “Quinoline‐Conjugated Ruthenacarboranes: Toward Hybrid Drugs with a Dual Mode of Action” (Chemmedchem, 2019).

In assay [1] the test system is A375 human skin melanoma. Description: MTT cell viability assay, A375. The assay is classed as cell-based. The settings on record: 72 h. The source says:
(§1) Thus, care must be taken when comparing their biological activities with those of our previous studies, even with the same cell line, because the covalent vs. non‐covalent combination of drugs might imply different mechanisms of action in the cell.44 Here, we studied the in vitro activity of ruthenacarborane 3, i. e. free acid, and its 8‐hydroxyquinolyl (4) and 4‐{(7‐chloroquinolin‐4‐yl)oxy}butanol‐1‐yl (5) esters, against a panel of cancer cell lines (B16 mouse melanoma, A375 human skin melanoma, MCF‐7 human breast adenocarcinoma, LN229 human glioblastoma, U251 human glioma). Human fibroblast cell line MRC‐5, murine microglial cell line BV‐2 as well as peritoneal exudate cells (Mph), were chosen as models for non‐malignant cells. […] On the other side, we wanted to assess the reproducibility of the viability data, under either controlled (with BSA) or uncontrolled (without BSA) conditions, in two sets of independent assays. […] Cells were exposed to 3–5 for 72 h, after which cell viability was determined via 3‐(4,5‐dimethylthiazol‐2‐yl)‐2,5‐diphenyltetrazolium bromide (MTT) and crystal violet (CV) assays, in parallel (Table 2). Cisplatin was also tested as reference.
(§2) Preparation of drug solutions. […] Stock solution of cisplatin was prepared in DMF (10 mM) immediately before use. A stock solution of BSA in PBS was prepared at 1.28 mM concentration, and stored at 4 °C in the dark. […] Alternatively, 3 or 4 (DMSO stock solution) were added to the BSA solution in PBS, always with a 10 : 1 molar ratio of BSA to ruthenacarborane. The BSA−ruthenacarborane solutions were incubated 0.5–1 h at room temperature, then diluted with cell culture medium to the desired final concentrations. Final concentrations of 3 and 4 were the same as for the BSA‐free formulation. Final DMSO was 0.02–0.5 vol %.
(§3) Colorimetric assays for cellular viability. […] For counting the number of attached (viable) cells, cells were fixed with 4 % (w/v) paraformaldehyde for 10 min at room temperature, and subsequently stained for 15 min with […] crystal violet (CV) solution. Cells were then washed with tap water, dried in air, and the CV dye was dissolved in 33 % (w/v) acetic acid solution. For the detection of mitochondrial respiration, cells were cultivated in MTT staining solution (0.5 mg mL^−1) for approximately 1 h. The dye was then discarded, and the formed formazan (purple) was dissolved in DMSO. The absorbance was measured with an automated microplate reader at λmax 540 nm, with the reference λmax 670 nm. Untreated cells or cells treated only with BSA (control) were also measured, as reference for BSA‐free and BSA‐containing drug formulations, respectively. […] Cell viability is expressed as percentage (%) relative to control (untreated cultures).58 Experiments were run in three independent replicates. […]
A general note: Tetrazolium dyes change colour on reduction, which living cells bring about.

The test system of assay [2] is MCF‐7 human breast adenocarcinoma. Description: Crystal violet (CV) cell viability assay, MCF‐7. Conditions: 72 h. The assay is classed as cell-based.
Source text: as §1, §2, §3

For assay [3] the test system is unchanged. The assay can be described thus: MTT cell viability assay, MCF‐7. Conditions: 72 h. It is filed as cell-based.
Source text: as §1, §2, §3

In assay [4] the test system is U251 human glioma. Description: MTT cell viability assay, U251. The assay is classed as cell-based. The settings on record: 72 h.
Source text: as §1, §2, §3

Assay [5] deals with B16 mouse melanoma. Description: Crystal violet (CV) cell viability assay, B16. It is filed as cell-based. Conditions: 72 h.
Source text: as §1, §2, §3

Assay [6] has as its system B16 mouse melanoma. Description: MTT cell viability assay, B16. It is filed as cell-based. The settings on record: 72 h.
Source text: as §1, §2, §3

Assay [7] concerns U251 human glioma. Description: Crystal violet (CV) cell viability assay, U251. It is filed as cell-based. Conditions: read-out: IC50 U251.
Source text: as §1, §2
(§4) Colorimetric assays for cellular viability. […] For counting the number of attached (viable) cells, cells were fixed with 4 % (w/v) paraformaldehyde for 10 min at room temperature, and subsequently stained for 15 min with […] crystal violet (CV) solution. Cells were then washed with tap water, dried in air, and the CV dye was dissolved in 33 % (w/v) acetic acid solution. For the detection of mitochondrial respiration, cells were cultivated in MTT staining solution (0.5 mg mL^−1) for approximately 1 h. The dye was then discarded, and the formed formazan (purple) was dissolved in DMSO. The absorbance was measured with an automated microplate reader at λmax 540 nm, with the reference λmax 670 nm. Untreated cells or cells treated only with BSA (control) were also measured, as reference for BSA‐free and BSA‐containing drug formulations, respectively. For determination of the role of autophagy specific inhibitors, CQ or 3‐MA, were applied at a concentration of 20 μM and 0.5 mM, respectively, and the cells were stained with CV dye. Cell viability is expressed as percentage (%) relative to control (untreated cultures).58 Experiments were run in three independent replicates. […] Non‐linear regression analyses of the obtained results was done using GraphPad Prism software to calculate IC50 values.
(§5) mouse microglial cell line BV‐2 was a kind gift from Dr. Irena Lavrnja, Institute for Biological Research
(§6) “Siniša Stanković” (University of Belgrade).

Assay [8] has as its system LN229 human glioblastoma. The assay can be described thus: Crystal violet (CV) cell viability assay, LN229. The assay is classed as cell-based. Conditions: read-out: IC50 LN229.
Source text: as §1, §2, §4, §5, §6

The subject of assay [9] is A375 human skin melanoma. Description: Crystal violet (CV) cell viability assay, A375. The settings on record: 72 h. The assay is classed as cell-based.
Source text: as §1, §2, §3

For assay [10], the system named is LN229 human glioblastoma. The assay can be described thus: MTT cell viability assay, LN229. It is filed as cell-based. The settings on record: 72 h.
Source text: as §1, §2, §3

Assay [11] has as its system Human fibroblast cell line MRC‐5. The assay can be described thus: Crystal violet (CV) cell viability assay, MRC‐5. The assay is classed as cell-based. Conditions: 72 h.
Source text: as §1
(§7) Preparation of drug solutions. […] Stock solution of cisplatin was prepared in DMF (10 mM) immediately before use. A stock solution of BSA in PBS was prepared at 1.28 mM concentration, and stored at 4 °C in the dark. […] Alternatively, 3 or 4 (DMSO stock solution) were added to the BSA solution in PBS, always with a 10 : 1 molar ratio of BSA to ruthenacarborane. […]
(§8) Colorimetric assays for cellular viability. […] The absorbance was measured with an automated microplate reader at λmax 540 nm, with the reference λmax 670 nm. Untreated cells or cells treated only with BSA (control) were also measured, as reference for BSA‐free and BSA‐containing drug formulations, respectively. […] Cell viability is expressed as percentage (%) relative to control (untreated cultures).58 Experiments were run in three independent replicates. […]

The test system is the same in assay [12]. Description: MTT cell viability assay, MRC‐5. It is filed as cell-based. The settings on record: 72 h.
Source text: as §1, §7, §8

The test system of assay [13] is murine microglial cell line BV‐2. Description: MTT cell viability assay, BV‐2. It is filed as cell-based, mouse. Conditions: 72 h.
Source text: as §1, §7, §8

Assay [14] relates to U251 and LN229 cell lines. Description: Cell viability assays (MTT, CV), summary for glioma and glioblastoma lines. The settings on record: concentration range tested up to 100 μM, 72 h. It is filed as cell-based, human.
Source text: as §1, §7, §8

For assay [15], the system named is primary non‐malignant mouse macrophages (Mph). The assay can be described thus: Crystal violet (CV) cell viability assay, peritoneal macrophages (Mph). Conditions: 72 h. The assay is classed as cell-based.
Source text: as §1, §7, §8

For assay [16], the system named is murine microglial cell line BV‐2. Description: Crystal violet (CV) cell viability assay, BV‐2. It is filed as cell-based, mouse. Conditions: 72 h.
Source text: as §1, §7, §8

A word on the IC50: it is the midpoint of a concentration-inhibition curve. As to `N.N.[Cl][Pt][Cl]` [Cisplatin, reference compound], the IC50 in assay [1] was 3.3 ± 0.4 µM; in assay [2], 3.5 ± 0.2 µM; in [3], 3 ± 0.5 µM; in [4], 0.4 ± 0.1 µM; in [5] it was 10.9 ± 1.2 µM; in [6], 6 ± 0.4 µM. Besides, the half-inhibitory concentration (IC50) in [7] (CV assay, 72 h) is 0.8 ± 0.3 µM; in assay [8] (CV assay, 72 h), 4.1 ± 0.6 µM; in [9] it was 3.7 ± 0.1 µM; in assay [10], 4.1 ± 0.4 µM.

As for “closo ‐[3‐(η^6‐p‐Cymene)‐1‐[(7‐chloroquinolin‐4‐yl)oxy]butyl acetate)‐3,1,2‐RuC2B9H10] [Compound 5]”, the IC50 in [11] was more than 100 µM; in [12] it was more than 100 µM; in [1], 43.4 ± 0.3 µM; in [13], 12.3 ± 0.1 µM; in assay [2] it was 34.1 ± 0.5 µM; in [3], 15.5 ± 1.5 µM. Also, the IC50 in assay [4] was more than 100 µM; in assay [5], 33.7 ± 2.9 µM; in [6] it was 9.5 ± 1.8 µM; in [15], more than 100 µM; in assay [7] (CV assay, 72 h) it was more than 100 µM; in assay [8] (CV assay, 72 h), 82.5 ± 7.6 µM. Moreover, the half-maximal inhibitory concentration (IC50) was more than 100 µM in [16], more than 100 µM in assay [9] and 86.7 ± 3 µM in [10]. For the same compound, the “activity against LN229 and U251 (in words)” value in [14] was “inactive”.

`CCN(CC)CCCC(C)Nc1ccnc2cc(Cl)ccc12` (stereo not shown) [CQ, chloroquine, reference compound]: the half-inhibitory concentration (IC50) in assay [7] (Homo sapiens, U-251, 72 h) was in the range of 30 to 50 µM; in assay [8] (Homo sapiens, LN-229, 72 h), 30 to 50 µM.
